Data taken from US6770748B2, “Bicyclonucleoside and oligonucleotide analogue” (priority 1997, dated 2004).

What was measured:
[1] = system: complementary DNA 3′-CGCAAAAAACGA-5′ (SEQ ID NO:12); test: Melting temperature (Tm) of annealing products of antisense oligonucleotide analogues with complementary DNA sense strand; assay type: binding; settings: for Tm for complementary DNA: 100 mM NaCl, 10 mM sodium phosphate buffer (pH 7.2), 4 μM antisense strand, 4 μM sense strand, UV 260 nm; for ΔTm/mod. for complementary DNA: change of Tm per modified residue versus natural strand
Description: (§1) The melting temperatures (Tm's) of annealing products between antisense strands, which were the various oligonucleotide analogues synthesized in Example 2, and natural DNA- or RNA-based sense strands were measured to investigate the hybridizing ability of the oligonucleotide analogues of the present invention for complementary DNA and RNA.
(§2) Each sample solution (500 μL) with end concentrations of 100 mM NaCl, 10 mM sodium phosphate buffer (pH 7.2), 4 μM antisense strand, and 4 μM sense strand, respectively, was bathed in boiling water, and slowly cooled to room temperature over the course of 10 hours. The sample solution was gradually cooled to 5° C., kept at 5° C. for a further period of 20 minutes, and then started to be measured, with a stream of nitrogen being passed through a cell chamber of a spectrophotometer (UV-2100PC, Shimadzu) for prevention of moisture condensation. The sample temperature was raised at a rate of 0.2° C./minute until 90° C., and the ultraviolet absorption at 260 nm was measured at intervals of 0.1° C. To prevent changes in the sample concentration with increases in the temperature, the cell was provided with a closure, and a drop of a mineral oil was applied onto the surface of the sample solution during measurement.

[2] = system: complementary RNA 3′-r(CGCAAAAAACGA) (SEQ ID NO:12); test: Melting temperature (Tm) of annealing products of antisense oligonucleotide analogues with complementary RNA sense strand; assay type: binding; settings: for Tm for complementary RNA: 100 mM NaCl, 10 mM sodium phosphate buffer (pH 7.2), 4 μM antisense strand, 4 μM sense strand, UV 260 nm; for ΔTm/mod. for complementary RNA: change of Tm per modified residue versus natural strand
Description: as §1, §2

[3] = target: snake venom phosphodiesterase (Crotalus adamanteus, UniProt J3SEZ3)
[4] = total increase versus natural strand

snake venom phosphodiesterase, sequence (J3SEZ3 24-851 limits assumed): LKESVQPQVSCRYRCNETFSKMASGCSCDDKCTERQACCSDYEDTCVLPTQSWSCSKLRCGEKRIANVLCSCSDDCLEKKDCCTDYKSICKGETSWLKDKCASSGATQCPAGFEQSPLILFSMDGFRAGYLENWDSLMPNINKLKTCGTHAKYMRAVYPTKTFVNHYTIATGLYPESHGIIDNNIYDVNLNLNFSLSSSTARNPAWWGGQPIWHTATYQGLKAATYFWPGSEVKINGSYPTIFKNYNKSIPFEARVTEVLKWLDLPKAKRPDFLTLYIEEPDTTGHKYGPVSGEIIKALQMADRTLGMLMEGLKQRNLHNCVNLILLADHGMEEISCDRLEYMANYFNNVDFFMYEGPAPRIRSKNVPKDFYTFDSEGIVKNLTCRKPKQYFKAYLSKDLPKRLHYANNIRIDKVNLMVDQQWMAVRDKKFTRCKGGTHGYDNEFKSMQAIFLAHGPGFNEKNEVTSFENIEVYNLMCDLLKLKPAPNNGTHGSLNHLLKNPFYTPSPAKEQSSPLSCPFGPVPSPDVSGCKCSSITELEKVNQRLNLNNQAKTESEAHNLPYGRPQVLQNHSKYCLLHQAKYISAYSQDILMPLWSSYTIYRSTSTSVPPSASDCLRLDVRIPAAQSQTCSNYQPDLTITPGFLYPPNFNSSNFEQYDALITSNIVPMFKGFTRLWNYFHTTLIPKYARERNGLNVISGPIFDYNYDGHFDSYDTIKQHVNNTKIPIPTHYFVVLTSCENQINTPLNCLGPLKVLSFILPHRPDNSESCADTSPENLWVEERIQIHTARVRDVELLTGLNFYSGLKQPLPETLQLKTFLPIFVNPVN

CC(C)(C)[Si](OC[C@@]12CO[C@@H]([C@H](n3cnc4c(NCc5ccccc5)ncnc43)O1)[C@@H]2OCc1ccccc1)(c1ccccc1)c1ccccc1
melting point: 80 to 81 °C

CC(C)C(=O)Nc1nc2c(ncn2[C@@H]2O[C@@]3(CO[Si](c4ccccc4)(c4ccccc4)C(C)(C)C)CO[C@@H]2[C@@H]3OCc2ccccc2)c(=O)[nH]1
melting point: 99 to 100 °C

5′-GCGTTTTTTTGCT-3′ [natural, reference compound]
Tm for complementary DNA [1]: 47 °C
Tm for complementary RNA [2]: 45 °C

5′-GCGTTTTTXGCT-3′ [Compound T5X]
Tm for complementary DNA [1]: 52 °C
ΔTm/mod. for complementary DNA [1]: +4 °C
Tm for complementary RNA [2]: 51 °C
ΔTm/mod. for complementary RNA [2]: +6 °C

5′-GCGTTTTXXGCT-3′ [Compound T4X2]
Tm for complementary DNA [1]: 54 °C
ΔTm/mod. for complementary DNA [1]: +3.5 °C
Tm for complementary RNA [2]: 55 °C
ΔTm/mod. for complementary RNA [2]: +5 °C

5′-GCGTTTXTTGCT-3′ [Compound T3XT2]
Tm for complementary DNA [1]: 49 °C
ΔTm/mod. for complementary DNA [1]: +2 °C
Tm for complementary RNA [2]: 50 °C
ΔTm/mod. for complementary RNA [2]: +5 °C

5′-GCGTTXTTTGCT-3′ [Compound T2XT3]
Tm for complementary DNA [1]: 49 °C
ΔTm/mod. for complementary DNA [1]: +2 °C
Tm for complementary RNA [2]: 49 °C
ΔTm/mod. for complementary RNA [2]: +4 °C

5′-GCGTTXXTTGCT-3′ [Compound T2X2T2]
Tm for complementary DNA [1]: 49 °C
ΔTm/mod. for complementary DNA [1]: +1 °C
Tm for complementary RNA [2]: 53 °C
ΔTm/mod. for complementary RNA [2]: +4 °C

5′-GCGXTTTTTGCT-3′ [XT6]
Tm for complementary DNA [1]: 50 °C
ΔTm/mod. for complementary DNA [1]: +3 °C
Tm for complementary RNA [2]: 49 °C
ΔTm/mod. for complementary RNA [2]: +4 °C

5′-GCGXXTTTTGCT-3′ [Compound X2T4]
Tm for complementary DNA [1]: 51 °C
ΔTm/mod. for complementary DNA [1]: +2 °C
Tm for complementary RNA [2]: 53 °C
ΔTm/mod. for complementary RNA [2]: +4 °C

5′-GCGXXXXXXGCT-3′ [Compound X6]
Tm for complementary DNA [1]: 58 °C
ΔTm/mod. for complementary DNA [1]: +1.8 °C
rise in Tm as compared with the natural strand, complementary DNA oligomer [1, 4]: 11 degrees
Tm for complementary RNA [2]: 71 °C
ΔTm/mod. for complementary RNA [2]: +4.3 °C
increase in Tm per modified residue, complementary RNA ([2]; per modified residue versus natural strand): 4 degrees
increase in Tm over the natural strand, complementary RNA [2, 4]: more than 25 degrees

5′-GTTTTTTTTTTTC-3′ [natural type]
time until ultraviolet absorption reached a plateau after initiation of the enzyme reaction [3]: about 30 minutes
t½ (half-life) ([3]; pH 8.6): 4.33 min

Cc1cn([C@@H]2O[C@@]3(CO)CO[C@@H]2[C@@H]3O)c(=O)[nH]c1=O [Compound 39a, 2′-O,4′-C-methylene-5-methyluridine]
melting point: 194 to 195 °C
